Source: patent US20230331827A1, “POTASSIUM CHANNEL INHIBITORS” (priority 2017, published 2023)

System: trypsin
Test: Phage TRF binding assay on immobilised biotinylated trypsin (monoclonal phage ELISA)
Conditions: presented on phage as direct N-terminus gene-III fusion
Description: Phage display technology facilitates isolation of binders to any given target from large combinatorial repertoires based on proteins and peptides that can be presented on the surface of filamentous phage^105. In order to isolate functional knottin-antibody fusions from the KnotBody libraries multiple rounds of phage display selections on trypsin (cognate antigen for the EETI-II donor) were carried out. Phage particles were prepared by rescuing KnotBody libraries using trypsin cleavable helper phage ^102,106Two rounds of phage display selections were performed on 10 µg/ml biotinylated trypsin immobilised on Streptavidin (for Round-1) or Neutravidin (for round-2) coated Maxisorp™ immunotubes (Thermo Scientific, Cat No. 444202). In both rounds of selection, phage libraries were pre-incubated with streptavidin coated paramagnetic beads (Thermo Fisher Scientific, Cat. No. 11205D). […] Polyclonal phage preparations from round-2 selection outputs were analysed for trypsin binding using a time resolved fluorescence (TRF) binding assay. In this assay, polyclonal phage binding to biotinylated trypsin immobilised on neutravidin (Thermo Fisher Scientific, Cat. No 31000) coated Maxisorp™ plates (Thermo Scientific, Cat. No. 437111) was detected using a mouse anti-M13 antibody (GE Healthcare, Cat. No. 27-9420-01) followed by europium conjugated anti-mouse antibody (Perkin Elmer, Cat. No. AD0124). […]

Substance: Ecballium elaterium trypsin inhibitor-II [EETI-II, reference compound]
- binding to trypsin: no detectable binding to trypsin
